Converted amounts (≈) assume the structure as drawn. “Also recorded” adds a separate entry of the source. Read-outs that look alike come from different tables or passages of the source. Positions of bridges follow the written chain, without caps; N, C: chain ends. Residues, ends and D or L forms follow the SMILES beside them.
Assays:
[1] = test system: B. multivorans ATCC 17616
[2] = test system: Burkholderia multivorans ATCC 17616
[3] = test system: Burkholderia pseudomallei 576mn
[4] = test system: Burkholderia gladioli ATCC 10248
B. mallei NVSL 86-567-2 [5] = test system: B. mallei NVSL 86-567-2
E. coli RNA polymerase = E. coli RNA polymerase (Escherichia coli, UniProt P0A8T7+P0A8V2); experiment: in vitro abortive transcription initiation assay (RNAP inhibition); type: biochemical
B. cepacia ATCC 25416 [6] = test system: B. cepacia ATCC 25416
[7] = test system: Pseudomonas aeruginosa PAO1
B. mallei NVSL 86-567-2 [8] = test system: B. mallei NVSL 86-567-2; remark: listed apart in the source
[9] = test system: Salmonella enterica serovar newport
[10] = thermostability analysis via LC-MS; conditions: heated to 95° C.; 2 h for the LC-MS sample
B. cepacia ATCC 25416 [11] = test system: B. cepacia ATCC 25416; remark: listed apart in the source
Burkholderia multivorans = type: cell-based
[12] = test system: Enterohemorrhagic Escherichia coli O157:H7 TUV-93-0
B. pseudomallei = type: cell-based, Burkholderia pseudomallei
B. mallei Old ISU [13] = test system: B. mallei Old ISU
[14] = test system: Burkholderia thailandensis E264
B. mallei Old ISU [15] = test system: B. mallei Old ISU; remark: listed apart in the source
[16] = test system: Burkholderia pseudomallei Bp82
[17] = test system: B. multivorans ATCC 17616; remark: listed apart in the source
[18] = test system: Salmonella enterica serovar newport; conditions: cited from earlier work
[19] = test system: Enterohemorrhagic Escherichia coli O157:H7 TUV-93-0; conditions: E. coli; cited from earlier work

Sequence of E. coli RNA polymerase (P0A8T7 whole entry): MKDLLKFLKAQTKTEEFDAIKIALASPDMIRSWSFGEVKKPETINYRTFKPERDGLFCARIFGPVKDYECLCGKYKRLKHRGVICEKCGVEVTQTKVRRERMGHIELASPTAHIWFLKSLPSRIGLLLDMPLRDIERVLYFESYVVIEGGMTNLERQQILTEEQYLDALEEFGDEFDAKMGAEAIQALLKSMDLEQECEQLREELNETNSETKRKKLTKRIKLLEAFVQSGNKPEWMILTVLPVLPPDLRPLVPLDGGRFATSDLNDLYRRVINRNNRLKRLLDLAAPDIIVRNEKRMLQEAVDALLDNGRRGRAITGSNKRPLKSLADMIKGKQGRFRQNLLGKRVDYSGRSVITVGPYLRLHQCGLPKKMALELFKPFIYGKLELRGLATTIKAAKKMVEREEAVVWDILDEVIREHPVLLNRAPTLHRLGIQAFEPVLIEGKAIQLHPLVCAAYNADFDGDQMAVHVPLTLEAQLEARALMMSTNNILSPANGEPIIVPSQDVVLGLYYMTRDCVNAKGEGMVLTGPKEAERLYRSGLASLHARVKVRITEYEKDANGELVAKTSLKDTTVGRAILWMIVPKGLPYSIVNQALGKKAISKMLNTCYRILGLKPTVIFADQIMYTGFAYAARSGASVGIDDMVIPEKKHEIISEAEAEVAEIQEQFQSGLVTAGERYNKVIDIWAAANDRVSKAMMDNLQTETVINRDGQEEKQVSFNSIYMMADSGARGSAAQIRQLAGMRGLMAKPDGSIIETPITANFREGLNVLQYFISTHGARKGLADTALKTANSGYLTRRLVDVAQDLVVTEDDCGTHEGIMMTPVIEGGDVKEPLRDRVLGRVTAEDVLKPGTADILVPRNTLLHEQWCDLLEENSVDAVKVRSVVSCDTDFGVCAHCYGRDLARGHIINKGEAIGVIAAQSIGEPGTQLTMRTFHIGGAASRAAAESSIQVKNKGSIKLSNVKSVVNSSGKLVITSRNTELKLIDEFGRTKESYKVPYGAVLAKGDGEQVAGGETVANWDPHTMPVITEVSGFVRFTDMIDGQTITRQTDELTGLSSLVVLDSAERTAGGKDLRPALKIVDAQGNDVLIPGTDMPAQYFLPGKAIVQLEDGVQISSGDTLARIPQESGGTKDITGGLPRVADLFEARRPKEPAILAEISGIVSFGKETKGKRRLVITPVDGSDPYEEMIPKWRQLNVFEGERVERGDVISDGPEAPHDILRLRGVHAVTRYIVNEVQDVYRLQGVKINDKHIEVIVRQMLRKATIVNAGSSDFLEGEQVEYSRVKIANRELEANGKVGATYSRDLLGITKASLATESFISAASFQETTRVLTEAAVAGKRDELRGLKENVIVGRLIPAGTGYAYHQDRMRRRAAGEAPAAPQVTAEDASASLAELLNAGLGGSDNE
Sequence of E. coli RNA polymerase (P0A8V2 whole entry): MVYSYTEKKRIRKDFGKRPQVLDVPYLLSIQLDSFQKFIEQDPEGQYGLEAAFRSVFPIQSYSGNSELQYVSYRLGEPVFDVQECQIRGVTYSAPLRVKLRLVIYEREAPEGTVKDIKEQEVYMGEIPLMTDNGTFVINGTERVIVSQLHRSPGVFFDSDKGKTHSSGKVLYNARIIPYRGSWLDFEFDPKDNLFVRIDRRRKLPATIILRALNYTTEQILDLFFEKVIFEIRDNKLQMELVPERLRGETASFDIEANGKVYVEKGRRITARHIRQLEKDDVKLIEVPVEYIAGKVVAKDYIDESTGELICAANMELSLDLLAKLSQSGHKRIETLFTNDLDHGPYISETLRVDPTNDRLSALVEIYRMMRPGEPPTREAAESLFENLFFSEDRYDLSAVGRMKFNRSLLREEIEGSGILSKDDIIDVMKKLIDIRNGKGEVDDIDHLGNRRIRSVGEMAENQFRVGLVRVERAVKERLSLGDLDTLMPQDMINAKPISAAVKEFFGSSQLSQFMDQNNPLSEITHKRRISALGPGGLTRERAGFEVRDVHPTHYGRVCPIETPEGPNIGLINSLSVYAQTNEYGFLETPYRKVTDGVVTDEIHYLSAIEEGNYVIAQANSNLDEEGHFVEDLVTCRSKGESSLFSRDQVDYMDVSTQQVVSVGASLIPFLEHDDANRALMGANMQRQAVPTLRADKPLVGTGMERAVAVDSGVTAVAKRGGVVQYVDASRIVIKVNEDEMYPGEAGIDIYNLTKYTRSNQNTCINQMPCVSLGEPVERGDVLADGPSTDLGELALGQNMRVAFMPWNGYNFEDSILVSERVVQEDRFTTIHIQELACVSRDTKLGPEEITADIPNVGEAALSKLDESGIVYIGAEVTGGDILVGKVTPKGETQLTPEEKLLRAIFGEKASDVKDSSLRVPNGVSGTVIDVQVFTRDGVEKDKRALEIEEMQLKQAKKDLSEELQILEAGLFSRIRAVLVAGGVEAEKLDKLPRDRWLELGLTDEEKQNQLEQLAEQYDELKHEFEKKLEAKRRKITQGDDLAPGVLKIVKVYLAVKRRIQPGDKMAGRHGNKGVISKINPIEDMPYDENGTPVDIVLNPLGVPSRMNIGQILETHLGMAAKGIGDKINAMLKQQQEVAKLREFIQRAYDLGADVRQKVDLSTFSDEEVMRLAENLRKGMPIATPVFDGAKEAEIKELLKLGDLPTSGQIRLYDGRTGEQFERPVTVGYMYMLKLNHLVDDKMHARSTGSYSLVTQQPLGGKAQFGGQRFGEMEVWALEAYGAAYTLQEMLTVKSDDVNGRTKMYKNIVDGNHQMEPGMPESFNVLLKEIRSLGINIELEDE
Sequence of E. coli RNA polymerase (P0A7Z4 whole entry, further chain): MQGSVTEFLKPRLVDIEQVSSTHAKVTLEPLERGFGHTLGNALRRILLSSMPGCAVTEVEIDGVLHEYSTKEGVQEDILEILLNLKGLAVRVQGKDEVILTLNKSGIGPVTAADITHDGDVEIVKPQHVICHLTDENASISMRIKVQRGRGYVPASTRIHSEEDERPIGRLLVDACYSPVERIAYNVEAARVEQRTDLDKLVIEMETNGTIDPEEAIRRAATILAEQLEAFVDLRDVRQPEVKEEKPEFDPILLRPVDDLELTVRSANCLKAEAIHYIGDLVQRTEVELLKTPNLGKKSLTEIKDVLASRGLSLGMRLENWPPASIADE
Sequence of E. coli RNA polymerase (P00579 whole entry, further chain): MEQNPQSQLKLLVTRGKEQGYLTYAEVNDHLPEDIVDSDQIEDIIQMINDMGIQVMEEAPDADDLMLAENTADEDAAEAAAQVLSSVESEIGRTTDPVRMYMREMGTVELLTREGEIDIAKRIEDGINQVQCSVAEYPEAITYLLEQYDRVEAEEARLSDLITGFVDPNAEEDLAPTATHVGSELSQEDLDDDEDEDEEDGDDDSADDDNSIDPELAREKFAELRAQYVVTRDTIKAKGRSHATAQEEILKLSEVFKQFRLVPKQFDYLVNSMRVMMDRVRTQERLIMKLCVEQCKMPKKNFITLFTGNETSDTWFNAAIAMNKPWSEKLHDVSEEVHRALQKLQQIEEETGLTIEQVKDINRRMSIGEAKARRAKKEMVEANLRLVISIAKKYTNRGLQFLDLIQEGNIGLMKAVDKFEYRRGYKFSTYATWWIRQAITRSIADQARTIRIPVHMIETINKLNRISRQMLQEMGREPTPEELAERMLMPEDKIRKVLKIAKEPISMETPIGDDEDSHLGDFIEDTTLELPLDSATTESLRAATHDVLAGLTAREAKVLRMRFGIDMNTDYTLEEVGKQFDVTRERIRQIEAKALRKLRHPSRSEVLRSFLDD
Sequence of E. coli RNA polymerase (P0A800 whole entry, further chain): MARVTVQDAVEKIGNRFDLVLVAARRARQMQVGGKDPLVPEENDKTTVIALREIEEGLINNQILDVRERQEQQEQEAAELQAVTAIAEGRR

## CC[C@H](C)[C@@H]1NC(=O)[C@H](CO)NC(=O)CNC(=O)[C@H](CC(=O)O)NC(=O)CNC(=O)CNC(=O)CC[C@@H](C(=O)N[C@@H](Cc2ccc(O)cc2)C(=O)N[C@@H](Cc2ccccc2)C(=O)N[C@@H](CC(N)=O)C(=O)N[C@@H](CCCNC(=N)N)C(=O)N2CCC[C@H]2C(=O)N[C@@H](CCSC)C(=O)N[C@@H](Cc2c[nH]cn2)C(=O)N[C@H](C(=O)N[C@@H](Cc2c[nH]cn2)C(=O)N[C@@H](CC(=O)O)C(=O)N[C@@H](Cc2c[nH]c3ccccc23)C(=O)N[C@@H](CCC(N)=O)C(=O)N[C@H](C(=O)N[C@@H](CCSC)C(=O)N[C@@H](CC(=O)O)C(=O)N[C@@H](CO)C(=O)NCC(=O)N[C@@H](Cc2ccc(O)cc2)C(=O)N[C@@H](Cc2ccc(O)cc2)C(=O)NCC(=O)O)[C@@H](C)CC)[C@@H](C)CC)NC(=O)[C@H](C)NC1=O [ubonodin] (GGDGSIAEYFNRPMHIHDWQIMDSGYYG-OH; lactam N-8; C-terminus assumed)
[1]
  MIC via liquid growth assay: 31 µM (≈ 99.2 µg/mL)
[2]
  MIC in M63 agar: 8 µM (≈ 25.6 µg/mL)
[2]; ATCC 17616
  MIC in M63 agar: 7.8 µM (≈ 25 µg/mL)
[3]
  MIC in M63 agar: >500 µM
[4]
  antimicrobial activity (in words): no activity
[4]; ATCC 10248
  MIC in M63 agar: >500 µM
B. mallei NVSL 86-567-2 [5]
  MIC via spot-on-lawn assay: 40 µM (≈ 128 µg/mL)
E. coli RNA polymerase
  potency in abortive transcription assays relative to MccJ25: somewhat lower than that of MccJ25
E. coli RNA polymerase; 0, 1, 10 or 100 μM peptide
  inhibition of E. coli RNA polymerase (abortive transcription initiation): inhibits transcription initiation; also recorded: able to inhibit E. coli RNAP; also recorded: inhibits E. coli RNA polymerase
B. cepacia ATCC 25416 [6]
  MIC via liquid growth assay: 4 µM (≈ 12.8 µg/mL)
[7]
  MIC in M63 agar: >500 µM
B. mallei NVSL 86-567-2 [8]
  MIC via liquid growth assay: >31 µM
[9]
  antimicrobial activity (in words): unable to kill
[9]; serovar newport
  MIC in M63 agar: >500 µM
[10]
  thermal degradation by LC-MS: fragments into a variety of different structures; also recorded: major species in this sample is still intact ubonodin
B. cepacia ATCC 25416 [11]
  MIC via spot-on-lawn assay: 40 µM (≈ 128 µg/mL)
Burkholderia multivorans
  activity against B. multivorans after heating: maintains its activity; also recorded: loses activity
[12]
  antimicrobial activity (in words): unable to kill
[12]; O157:H7
  MIC in M63 agar: >500 µM
B. pseudomallei
  antimicrobial activity (in words): no activity
B. mallei Old ISU [13]
  MIC via liquid growth assay: >31 µM
[14]
  MIC in M63 agar: 500 µM (≈ 1600 µg/mL)
B. mallei Old ISU [15]
  MIC via spot-on-lawn assay: 40 µM (≈ 128 µg/mL)
[16]
  MIC in M63 agar: >500 µM
[17]
  MIC via spot-on-lawn assay: 20 µM (≈ 64 µg/mL)

## H17A (GGDGSIAEYFNRPMHIADWQIMDSGYYG; listed as Burkholderia ubonensis)
[2]
  antimicrobial activity of purified ubonodin variants relative to wild-type: near wild-type activity

## citrocin
[18]
  susceptibility of strain to peptide: susceptible
[19]
  susceptibility of strain to peptide: susceptible

## microcin J25 (GGAGHVPEYFVGIGTPISFYG) [MccJ25]
[18]
  susceptibility of strain to peptide: susceptible
[19]
  susceptibility of strain to peptide: susceptible
